# Measured values reported in US10093630B2, “Pyrazole compounds and methods of making and using same” (ABIDE THERAPEUTICS, INC., priority 2014, dated 2018).
# Read-outs that look alike come from different tables or passages of the source.
# Legend:
# Assay in all cases: In vitro competitive activity-based protein profiling (gel-based, FP-Rh or HT-01 probe)
# Assay type in all cases: biochemical
# [1] = target: T1, FAAH (Mus musculus, UniProt O08914); details: for inhibition at 1 µM: 1 μM inhibitor, read-out: % Inhibition at 1 μM, B = FAAH; for inhibition at 10 µM: 10 μM inhibitor, read-out: % Inhibition at 10 μM, B = FAAH; for IC50: mouse brain membrane fraction or cell lysates, 30 min preincubation at 37° C., read-out: Mouse (IC50 value, nM) FAAH
# T1 construct: Proteomes (mouse brain membrane fraction or cell lysates); from tissue; host or cells: mouse brain membrane fraction (or cell lysates, not specified)
# T1 sequence (O08914 1-579): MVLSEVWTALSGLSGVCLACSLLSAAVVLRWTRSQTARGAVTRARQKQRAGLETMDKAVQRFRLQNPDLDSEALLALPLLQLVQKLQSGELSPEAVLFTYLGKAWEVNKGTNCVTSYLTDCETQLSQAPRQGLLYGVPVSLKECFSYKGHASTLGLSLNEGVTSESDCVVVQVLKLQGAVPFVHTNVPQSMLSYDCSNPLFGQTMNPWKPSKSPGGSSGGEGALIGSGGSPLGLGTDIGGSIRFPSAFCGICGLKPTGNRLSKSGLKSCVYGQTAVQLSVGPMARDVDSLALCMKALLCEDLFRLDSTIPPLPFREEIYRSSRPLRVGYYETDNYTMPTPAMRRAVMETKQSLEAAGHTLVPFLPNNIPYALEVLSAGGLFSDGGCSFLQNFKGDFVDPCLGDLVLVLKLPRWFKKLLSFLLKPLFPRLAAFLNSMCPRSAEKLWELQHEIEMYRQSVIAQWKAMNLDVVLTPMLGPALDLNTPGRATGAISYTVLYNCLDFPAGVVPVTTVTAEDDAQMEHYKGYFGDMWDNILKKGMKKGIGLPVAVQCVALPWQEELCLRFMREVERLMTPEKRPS
# Summary of the method: (§1)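 Steps: inhibitor dilutions + proteome (1.0 mg/mL), 30 min, 37° C; add FP-Rh or HT-01 (50 μM DMSO stock), 30 min, 37° C; quench in SDS buffer; SDS-PAGE; gel imaging; band densitometry.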
# [2] = target: T2, ABHD6 (Mus musculus, UniProt Q8R2Y0); details: for inhibition at 1 µM: 1 μM inhibitor, read-out: % Inhibition at 1 μM, C = ABHD6; for inhibition at 10 µM: 10 μM inhibitor, read-out: % Inhibition at 10 μM, C = ABHD6; for IC50: mouse brain membrane fraction or cell lysates, 30 min preincubation at 37° C., read-out: Mouse (IC50 value, nM) ABHD6
# T2 construct: Proteomes (mouse brain membrane fraction or cell lysates); from tissue; host or cells: mouse brain membrane fraction (or cell lysates, not specified)
# T2 sequence (Q8R2Y0 1-336): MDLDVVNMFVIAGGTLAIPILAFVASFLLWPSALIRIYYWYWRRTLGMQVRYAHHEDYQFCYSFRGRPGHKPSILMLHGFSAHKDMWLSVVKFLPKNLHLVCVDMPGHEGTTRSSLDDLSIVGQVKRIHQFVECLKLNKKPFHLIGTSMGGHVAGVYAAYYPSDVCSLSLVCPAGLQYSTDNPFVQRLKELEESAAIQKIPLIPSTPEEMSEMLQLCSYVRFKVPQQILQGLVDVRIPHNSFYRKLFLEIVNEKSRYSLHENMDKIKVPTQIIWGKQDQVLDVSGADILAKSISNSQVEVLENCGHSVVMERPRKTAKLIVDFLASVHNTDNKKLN
# Summary of the method: as §1
# [3] = target: T3, MAGL (Mus musculus, UniProt O35678); details: for inhibition at 1 µM: 1 μM inhibitor; for inhibition at 10 µM: 10 μM inhibitor; for IC50: mouse brain membrane fraction or cell lysates, 30 min preincubation at 37° C., read-out: Mouse (IC50 value, nM) MAGL
# T3 construct: Proteomes (mouse brain membrane fraction or cell lysates); from tissue; host or cells: mouse brain membrane fraction (or cell lysates, not specified)
# T3 sequence (O35678 1-303): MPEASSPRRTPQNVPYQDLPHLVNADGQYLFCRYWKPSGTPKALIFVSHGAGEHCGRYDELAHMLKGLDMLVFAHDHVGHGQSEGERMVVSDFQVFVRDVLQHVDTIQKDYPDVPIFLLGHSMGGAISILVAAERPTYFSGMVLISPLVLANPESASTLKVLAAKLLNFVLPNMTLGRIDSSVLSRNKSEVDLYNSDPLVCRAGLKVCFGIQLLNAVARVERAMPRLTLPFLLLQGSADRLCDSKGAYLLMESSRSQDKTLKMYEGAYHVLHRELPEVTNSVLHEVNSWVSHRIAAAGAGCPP
# Summary of the method: as §1
# [4] = target: T4, PLA2G7 (Mus musculus, UniProt Q60963); details: for inhibition at 1 µM: 1 μM inhibitor, read-out: % Inhibition at 1 μM, D = PLA2G7; for inhibition at 10 µM: 10 μM inhibitor, read-out: % Inhibition at 10 μM, D = PLA2G7; for IC50: mouse brain membrane fraction or cell lysates, 30 min preincubation at 37° C.
# T4 construct: Proteomes (mouse brain membrane fraction or cell lysates); from tissue; host or cells: mouse brain membrane fraction (or cell lysates, not specified)
# T4 sequence (Q60963 22-440): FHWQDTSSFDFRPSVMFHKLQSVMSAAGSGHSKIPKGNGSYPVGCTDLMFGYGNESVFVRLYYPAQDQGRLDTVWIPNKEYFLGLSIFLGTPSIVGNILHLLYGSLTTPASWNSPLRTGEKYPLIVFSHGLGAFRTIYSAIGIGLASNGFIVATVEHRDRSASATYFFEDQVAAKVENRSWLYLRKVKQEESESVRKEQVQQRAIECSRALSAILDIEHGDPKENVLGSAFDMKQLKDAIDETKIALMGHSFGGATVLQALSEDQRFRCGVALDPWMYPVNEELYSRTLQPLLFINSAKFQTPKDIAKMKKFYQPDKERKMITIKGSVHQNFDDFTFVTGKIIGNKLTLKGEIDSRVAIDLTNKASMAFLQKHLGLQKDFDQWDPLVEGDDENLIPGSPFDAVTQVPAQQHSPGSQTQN
# Summary of the method: as §1
SMILES,inhibition at 1 µM [1],inhibition at 10 µM [1],inhibition at 1 µM [2],inhibition at 10 µM [2],inhibition at 1 µM [3],inhibition at 10 µM [3],inhibition at 1 µM [4],inhibition at 10 µM [4],IC50 [1],IC50 [2],IC50 [3],IC50 [4],inhibition at 1 µM ([1]; gel-based competitive ABPP),inhibition at 1 µM ([2]; gel-based competitive ABPP),inhibition at 1 µM ([3]; gel-based competitive ABPP),inhibition at 1 µM ([4]; gel-based competitive ABPP)
"CC(=O)N(C)CCN(C)C(=O)n1cc(C#N)cn1 [Example 181, 4-Cyano-N-methyl-N-(2-(N-methylacetamido)ethyl)-1H-pyrazole-1-carboxamide]",< 25%,> 75%,< 25%,> 75%,< 25%,< 25%,< 25%,> 75%,,,,,,,,
"COc1ccc(N2CCN(C(=O)n3cc(C(F)(F)F)cn3)CC2)cc1 [Example 235, (4-(4-Methoxyphenyl)piperazin-1-yl)(4-(trifluoromethyl)-1H-pyrazol-1-yl)methanone]",> 75%,> 75%,> 75%,> 75%,> 75%,> 75%,> 75%,> 75%,< 100 nM,< 100 nM,< 100 nM,< 100 nM,,,,
"O=C(N1CCN(c2ccc(N3CCCC3)cc2)CC1)n1cc(C(F)(F)F)cn1 [Example 241, (4-(4-(Pyrrolidin-1-yl)phenyl)piperazin-1-yl)(4-(trifluoromethyl)-1H-pyrazol-1-yl)methanone]",> 75%,> 75%,> 75%,> 75%,> 75%,> 75%,> 75%,> 75%,< 100 nM,< 100 nM,< 100 nM,< 100 nM,,,,
"N#Cc1cnn(C(=O)NCCCCCc2ccccc2)c1 [Example 39, 4-Cyano-N-(5-phenylpentyl)-1H-pyrazole-1-carboxamide]",< 25%,> 75%,< 25%,< 25%,< 25%,25 to 75%,< 25%,< 25%,,,,,,,,
"Cc1cnn(C(=O)NCCCCCc2ccccc2)c1 [Example 38, 4-Methyl-N-(5-phenylpentyl)-1H-pyrazole-1-carboxamide]",,< 25%,,< 25%,,< 25%,,< 25%,,,,,,,,
"O=C(N1CCN(Cc2ccccc2C(F)(F)F)CC1)n1cc(C(F)(F)F)cn1 [Example 279, (4-(Trifluoromethyl)-1H-pyrazol-1-yl)(4-(2-(trifluoromethyl)benzyl)piperazin-1-yl)methanone]",,,,,,,,,< 100 nM,< 100 nM,< 100 nM,100 to 1000 nM,> 75%,> 75%,> 75%,> 75%
"O=C(N1CCN(c2ccc(N3CCOCC3)cc2)CC1)n1cc(C(F)(F)F)cn1 [Example 238, (4-(4-Morpholinophenyl)piperazin-1-yl)(4-(trifluoromethyl)-1H-pyrazol-1-yl)methanone]",> 75%,> 75%,> 75%,> 75%,> 75%,> 75%,> 75%,> 75%,,,,,,,,
"O=C(N1CCN(Cc2ccccc2Cl)CC1)n1cc(C(F)(F)F)cn1 [Example 275, (4-(2-Chlorobenzyl)piperazin-1-yl)(4-(trifluoromethyl)-1H-pyrazol-1-yl)methanone]",,,,,,,,,< 100 nM,< 100 nM,< 100 nM,< 100 nM,> 75%,> 75%,> 75%,> 75%
"CN1CCCN(C(=O)n2cc(C(F)(F)F)cn2)CC1 [Example 156, (4-Methyl-1,4-diazepan-1-yl)(4-(trifluoromethyl)-1H-pyrazol-1-yl)methanone]",< 25%,25 to 75%,< 25%,< 25%,< 25%,< 25%,< 25%,> 75%,,,,,,,,

# Continued, values first:
inhibition at 1 µM [1],inhibition at 10 µM [1],inhibition at 1 µM [2],inhibition at 10 µM [2],inhibition at 1 µM [3],inhibition at 10 µM [3],inhibition at 1 µM [4],inhibition at 10 µM [4],IC50 [1],IC50 [2],IC50 [3],IC50 [4],inhibition at 1 µM ([1]; gel-based competitive ABPP),inhibition at 1 µM ([2]; gel-based competitive ABPP),inhibition at 1 µM ([3]; gel-based competitive ABPP),inhibition at 1 µM ([4]; gel-based competitive ABPP),SMILES
> 75%,> 75%,> 75%,> 75%,> 75%,> 75%,> 75%,> 75%,,,,,,,,,"N#Cc1cnn(C(=O)N2CCN(Cc3ccc(-c4ccccc4)cc3)CC2)c1 [Example 24, 1-(4-([1,1′-Biphenyl]-4-ylmethyl)piperazine-1-carbonyl)-1H-pyrazole-4-carbonitrile]"
> 75%,> 75%,> 75%,> 75%,> 75%,> 75%,25 to 75%,> 75%,< 100 nM,100 to 1000 nM,< 100 nM,> 1000 nM,,,,,"CN(Cc1cccc(-c2ccncc2)c1)C(=O)n1cc(Cl)cn1 [Example 220, 4-Chloro-N-methyl-N-(3-(pyridin-4-yl)benzyl)-1H-pyrazole-1-carboxamide]"
> 75%,> 75%,> 75%,> 75%,> 75%,> 75%,< 25%,> 75%,< 100 nM,< 100 nM,< 100 nM,,,,,,"N#Cc1cnn(C(=O)N2CCN(Cc3ccc(OCc4ccccc4)cc3)CC2)c1 [Example 21, 1-(4-(4-(Benzyloxy)benzyl)piperazine-1-carbonyl)-1H-pyrazole-4-carbonitrile]"
,,,,,,,,< 100 nM,> 1000 nM,100 to 1000 nM,> 1000 nM,> 75%,< 25%,> 75%,< 25%,"CCN(Cc1ccc(C)cc1)C(=O)n1cc(C#N)cn1 [Example 255, 4-Cyano-N-ethyl-N-(4-methylbenzyl)-1H-pyrazole-1-carboxamide]"
> 75%,> 75%,> 75%,> 75%,> 75%,> 75%,> 75%,> 75%,,,,,,,,,"COC(=O)c1cnn(C(=O)N2CCN(Cc3ccc4ccccc4c3)CC2)c1 [Example 15, Methyl 1-(4-(naphthalen-2-ylmethyl)piperazine-1-carbonyl)-1H-pyrazole-4-carboxylate]"
